Among the data in ChEMBL document CHEMBL3351872, “2- and 3-substituted imidazo[1,2-a]pyrazines as inhibitors of bacterial type IV secretion” (Bioorg Med Chem, 2014) are IC50 values, retold here.

In general, IC50 refers to the point on the concentration scale where inhibition reaches its midpoint.

Each structure is given as a SMILES string.

The test in a line: Inhibition of Helicobacter pylori VirB11 HP0525 ATPase expressed in Escherichia coli assessed as reduction in inorganic phosphate release by colorimetric ATPase assay.
In the case of `Cc1ccc(S(=O)(=O)NCCNc2nc(Br)cn3cc(-c4ccc5ccccc5c4)nc23)cc1`, the IC50 amounted to 77 µM. Under `Cc1ccc(S(=O)(=O)Nc2nccn3c(-c4ccc5ccccc5c4)cnc23)cc1` stands 77 µM; under `Cc1ccc(S(=O)(=O)Nc2ccc(Nc3nc(Br)cn4cc(-c5ccc6ccccc6c5)nc34)cc2)cc1`, 6 µM.
